Assay results reported in patent publication US10670605B2, “Cysteine reactive probes and uses thereof” (The Scripps Research Institute, priority 2015, dated 2020).
One block for each compound: values may come before it.

What was measured:
Assay in all cases: Competitive isoTOP-ABPP, cell lysates
Format in all cases: binding
ACAT1 C119 (P24752) = biological target: T1, ACAT1 C119 (P24752) (Homo sapiens, UniProt P24752); details: for isoTOP-ABPP reactivity ratio, P24752_C119: 500 μm
T1 sequence (P24752 34-427): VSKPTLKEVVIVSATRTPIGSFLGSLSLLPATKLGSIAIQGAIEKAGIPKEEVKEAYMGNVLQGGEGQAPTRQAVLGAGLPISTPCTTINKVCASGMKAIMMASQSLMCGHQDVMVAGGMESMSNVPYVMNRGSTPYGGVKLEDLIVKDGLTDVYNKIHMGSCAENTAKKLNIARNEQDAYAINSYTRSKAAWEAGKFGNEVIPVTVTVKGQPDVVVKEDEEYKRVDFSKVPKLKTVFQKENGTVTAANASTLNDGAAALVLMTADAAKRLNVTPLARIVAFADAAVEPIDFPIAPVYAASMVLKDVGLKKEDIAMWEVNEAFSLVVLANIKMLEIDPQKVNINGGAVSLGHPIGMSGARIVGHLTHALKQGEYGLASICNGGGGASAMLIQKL

USP28 C171 (Q96RU2) = biological target: T2, USP28 C171 (Q96RU2) (Homo sapiens, UniProt Q96RU2)
T2 sequence (Q96RU2 1-1077): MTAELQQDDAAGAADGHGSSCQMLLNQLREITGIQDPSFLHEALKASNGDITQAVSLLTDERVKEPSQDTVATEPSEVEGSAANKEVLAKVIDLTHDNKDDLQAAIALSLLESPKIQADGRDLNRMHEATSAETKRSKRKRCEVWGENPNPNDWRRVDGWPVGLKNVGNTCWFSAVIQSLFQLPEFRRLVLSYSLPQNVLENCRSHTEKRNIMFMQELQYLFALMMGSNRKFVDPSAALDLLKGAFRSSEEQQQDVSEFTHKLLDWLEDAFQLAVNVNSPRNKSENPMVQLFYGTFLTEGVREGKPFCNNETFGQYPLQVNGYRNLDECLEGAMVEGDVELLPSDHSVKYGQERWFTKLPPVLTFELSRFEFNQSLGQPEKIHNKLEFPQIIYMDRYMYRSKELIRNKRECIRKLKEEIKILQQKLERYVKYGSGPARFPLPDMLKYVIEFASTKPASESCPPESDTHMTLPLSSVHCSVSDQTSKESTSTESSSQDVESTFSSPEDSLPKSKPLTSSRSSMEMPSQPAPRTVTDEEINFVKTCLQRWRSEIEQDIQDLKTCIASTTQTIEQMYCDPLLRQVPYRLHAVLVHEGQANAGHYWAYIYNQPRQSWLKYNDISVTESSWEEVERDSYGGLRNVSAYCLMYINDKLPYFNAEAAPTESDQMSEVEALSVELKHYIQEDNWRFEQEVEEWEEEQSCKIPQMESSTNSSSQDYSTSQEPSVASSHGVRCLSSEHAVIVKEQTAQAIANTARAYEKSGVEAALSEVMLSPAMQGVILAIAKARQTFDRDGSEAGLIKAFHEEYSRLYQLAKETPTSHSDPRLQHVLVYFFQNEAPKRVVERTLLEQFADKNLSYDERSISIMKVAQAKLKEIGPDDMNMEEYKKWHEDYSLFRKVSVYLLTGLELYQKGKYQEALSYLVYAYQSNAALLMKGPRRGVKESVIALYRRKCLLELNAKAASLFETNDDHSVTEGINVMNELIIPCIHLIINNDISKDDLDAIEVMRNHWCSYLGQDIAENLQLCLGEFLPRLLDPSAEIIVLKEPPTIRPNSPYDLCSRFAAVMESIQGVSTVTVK

MLTK C22 (Q9NYL2) = MLTK C22 (Q9NYL2) (Homo sapiens, UniProt Q9NYL2); details: for isoTOP-ABPP ratio (reactivity profile), Q9NYL2_C22: 500 μm in-vitro ramos_231; for isoTOP-ABPP ratio Q9NYL2_C22: invitro, 231; for R value (DMSO/fragment): in vitro, MDA-MB-231
CASP8 C360 (Q14790) = CASP8 C360 (Q14790) (Homo sapiens, UniProt Q14790); details: for isoTOP-ABPP reactivity ratio, Q14790_C360: 500 μm
EZH2 C503 (Q15910) = EZH2 C503 (Q15910) (Homo sapiens, UniProt Q15910)
Chain of EZH2 C503 (Q15910) (Q15910 whole entry): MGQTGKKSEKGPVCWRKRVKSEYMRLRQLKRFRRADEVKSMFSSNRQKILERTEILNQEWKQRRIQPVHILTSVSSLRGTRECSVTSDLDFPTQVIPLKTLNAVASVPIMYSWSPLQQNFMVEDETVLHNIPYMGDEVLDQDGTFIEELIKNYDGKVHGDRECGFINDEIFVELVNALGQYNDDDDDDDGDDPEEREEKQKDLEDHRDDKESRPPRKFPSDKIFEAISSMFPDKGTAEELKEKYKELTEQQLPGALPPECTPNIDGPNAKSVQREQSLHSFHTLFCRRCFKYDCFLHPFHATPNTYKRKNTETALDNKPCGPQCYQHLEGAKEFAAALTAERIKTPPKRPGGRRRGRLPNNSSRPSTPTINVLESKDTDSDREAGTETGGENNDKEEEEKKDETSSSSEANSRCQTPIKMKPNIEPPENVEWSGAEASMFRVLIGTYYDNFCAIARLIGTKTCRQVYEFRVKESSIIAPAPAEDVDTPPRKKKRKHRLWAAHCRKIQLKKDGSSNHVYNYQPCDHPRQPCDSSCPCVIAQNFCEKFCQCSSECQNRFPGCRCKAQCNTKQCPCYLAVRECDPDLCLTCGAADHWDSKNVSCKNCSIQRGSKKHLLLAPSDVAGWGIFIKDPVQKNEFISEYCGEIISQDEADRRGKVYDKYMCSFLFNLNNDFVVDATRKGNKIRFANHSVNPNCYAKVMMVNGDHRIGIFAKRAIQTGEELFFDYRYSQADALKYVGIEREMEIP
Chain of EZH2 C503 (Q15910) (O75530 whole entry partner): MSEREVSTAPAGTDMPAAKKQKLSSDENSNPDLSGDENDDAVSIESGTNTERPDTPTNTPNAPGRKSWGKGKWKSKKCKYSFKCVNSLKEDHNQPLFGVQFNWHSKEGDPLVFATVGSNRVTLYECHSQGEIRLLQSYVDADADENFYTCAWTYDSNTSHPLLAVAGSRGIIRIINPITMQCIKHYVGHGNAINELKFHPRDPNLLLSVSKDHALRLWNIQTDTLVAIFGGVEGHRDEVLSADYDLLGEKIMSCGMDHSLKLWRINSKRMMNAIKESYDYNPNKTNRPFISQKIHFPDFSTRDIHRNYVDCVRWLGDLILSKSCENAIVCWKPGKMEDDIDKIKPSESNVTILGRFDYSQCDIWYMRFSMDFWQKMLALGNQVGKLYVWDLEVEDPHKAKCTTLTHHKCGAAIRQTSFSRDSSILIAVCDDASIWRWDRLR
Chain of EZH2 C503 (Q15910) (Q15022 whole entry partner): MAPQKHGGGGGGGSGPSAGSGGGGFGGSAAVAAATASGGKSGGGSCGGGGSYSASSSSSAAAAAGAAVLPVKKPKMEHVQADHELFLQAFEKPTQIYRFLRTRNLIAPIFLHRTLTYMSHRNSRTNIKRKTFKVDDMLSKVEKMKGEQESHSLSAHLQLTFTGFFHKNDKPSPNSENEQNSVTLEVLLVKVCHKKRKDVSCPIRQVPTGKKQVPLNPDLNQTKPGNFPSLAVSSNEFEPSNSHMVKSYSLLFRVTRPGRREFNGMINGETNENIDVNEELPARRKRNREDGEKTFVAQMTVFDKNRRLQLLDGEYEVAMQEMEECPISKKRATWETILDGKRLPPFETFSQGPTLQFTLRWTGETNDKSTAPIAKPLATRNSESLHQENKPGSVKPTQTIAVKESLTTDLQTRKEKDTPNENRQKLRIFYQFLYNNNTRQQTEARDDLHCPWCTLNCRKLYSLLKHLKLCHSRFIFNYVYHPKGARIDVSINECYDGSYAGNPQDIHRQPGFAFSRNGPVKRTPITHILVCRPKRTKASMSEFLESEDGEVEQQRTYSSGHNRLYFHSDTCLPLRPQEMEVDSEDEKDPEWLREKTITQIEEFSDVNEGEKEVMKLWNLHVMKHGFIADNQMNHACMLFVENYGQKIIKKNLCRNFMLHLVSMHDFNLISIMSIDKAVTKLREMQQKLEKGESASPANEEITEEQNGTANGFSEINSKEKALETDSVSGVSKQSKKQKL

Chain of MLTK C22 (Q9NYL2) (Q9NYL2 whole entry, the tested form may be a part): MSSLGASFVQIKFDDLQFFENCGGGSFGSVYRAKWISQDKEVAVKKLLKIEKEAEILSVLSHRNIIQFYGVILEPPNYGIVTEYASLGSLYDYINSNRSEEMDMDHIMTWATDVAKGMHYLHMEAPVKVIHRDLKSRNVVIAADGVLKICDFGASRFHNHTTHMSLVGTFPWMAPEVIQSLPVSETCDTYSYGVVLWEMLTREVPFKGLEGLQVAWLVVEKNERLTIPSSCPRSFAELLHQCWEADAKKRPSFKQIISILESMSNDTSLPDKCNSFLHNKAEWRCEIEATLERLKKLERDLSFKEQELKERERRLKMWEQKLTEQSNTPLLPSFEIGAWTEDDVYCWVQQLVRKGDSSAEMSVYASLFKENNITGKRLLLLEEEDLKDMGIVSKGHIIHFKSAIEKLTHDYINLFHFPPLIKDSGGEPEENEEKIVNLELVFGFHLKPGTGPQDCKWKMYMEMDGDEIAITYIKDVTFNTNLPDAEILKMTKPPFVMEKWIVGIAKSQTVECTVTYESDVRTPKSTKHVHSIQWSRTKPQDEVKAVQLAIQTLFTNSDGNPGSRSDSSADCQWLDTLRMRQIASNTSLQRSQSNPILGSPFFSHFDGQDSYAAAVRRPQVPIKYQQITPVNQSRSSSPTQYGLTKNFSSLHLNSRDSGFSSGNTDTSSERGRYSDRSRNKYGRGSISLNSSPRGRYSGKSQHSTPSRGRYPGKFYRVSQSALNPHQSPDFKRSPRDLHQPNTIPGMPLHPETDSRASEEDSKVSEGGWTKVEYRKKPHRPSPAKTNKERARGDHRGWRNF
Chain of CASP8 C360 (Q14790) (Q14790 whole entry): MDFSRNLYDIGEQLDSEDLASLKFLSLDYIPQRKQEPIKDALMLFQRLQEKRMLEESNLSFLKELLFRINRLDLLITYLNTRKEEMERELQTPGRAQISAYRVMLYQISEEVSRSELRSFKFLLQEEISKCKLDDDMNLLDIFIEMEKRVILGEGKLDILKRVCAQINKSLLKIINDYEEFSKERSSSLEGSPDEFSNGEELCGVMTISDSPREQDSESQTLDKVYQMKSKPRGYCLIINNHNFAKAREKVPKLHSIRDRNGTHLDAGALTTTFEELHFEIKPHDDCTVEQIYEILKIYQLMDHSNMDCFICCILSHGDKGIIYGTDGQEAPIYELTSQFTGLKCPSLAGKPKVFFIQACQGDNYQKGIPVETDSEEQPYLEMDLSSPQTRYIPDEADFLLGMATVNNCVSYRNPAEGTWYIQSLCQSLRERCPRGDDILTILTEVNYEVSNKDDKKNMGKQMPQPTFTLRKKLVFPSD

isoTOP-ABPP ratio P24752_C119 (ACAT1 C119 (P24752); 500 μM, invitro, 231): 1.2 | isoTOP-ABPP ratio P24752_C119 (ACAT1 C119 (P24752); 500 μM, invitro, ramos): 0.6 | isoTOP-ABPP ratio, Q96RU2_C171 (USP28 C171 (Q96RU2); 500 μM, invitro, ramos): 2.4 | isoTOP-ABPP ratio Q9NYL2_C22 (MLTK C22 (Q9NYL2); 500 μM): 5.2 | isoTOP-ABPP ratio, Q15910_C503 (EZH2 C503 (Q15910); 500 μM, invitro, ramos): 0.8
SMILES: O=C(CCl)NCCc1c[nH]c2ccccc12 [compound 13]

isoTOP-ABPP ratio (reactivity profile), P24752_C119 (ACAT1 C119 (P24752); 500 μm in-vitro ramos): 1.1 | isoTOP-ABPP ratio (reactivity profile), P24752_C119 (ACAT1 C119 (P24752); 500 μm in-vitro ramos_231): 0.9 | isoTOP-ABPP ratio (reactivity profile), Q96RU2_C171 (USP28 C171 (Q96RU2); 500 μm in-vitro ramos_231): 1.1 | isoTOP-ABPP ratio (reactivity profile), Q9NYL2_C22 (MLTK C22 (Q9NYL2)): 2.0 | isoTOP-ABPP ratio (reactivity profile), Q14790_C360 (CASP8 C360 (Q14790); 500 μm in-vitro ramos): 1.9 | isoTOP-ABPP ratio (reactivity profile), Q14790_C360 (CASP8 C360 (Q14790); 500 μm in-vitro ramos_231): 1.9
SMILES: O=C(CCl)NC12CC3CC(CC(C3)C1)C2 [compound 21]

isoTOP-ABPP ratio P24752_C119 (ACAT1 C119 (P24752); 500 μM, invitro, 231): 1.2 | isoTOP-ABPP ratio P24752_C119 (ACAT1 C119 (P24752); 500 μM, invitro, ramos): 0.9 | isoTOP-ABPP ratio, Q96RU2_C171 (USP28 C171 (Q96RU2); 500 μM, invitro, 231): 20.0 | isoTOP-ABPP ratio, Q15910_C503 (EZH2 C503 (Q15910); 500 μM, invitro, ramos): 1.3 | isoTOP-ABPP ratio Q14790_C360 (CASP8 C360 (Q14790); 500 μM, invitro, 231): 20.0 | isoTOP-ABPP ratio Q14790_C360 (CASP8 C360 (Q14790); 500 μM, invitro, ramos): 20.0
SMILES: Cn1cc(S(=O)(=O)N2CCOCC2)cc1C(=O)NC(=O)CCl [compound 11]

isoTOP-ABPP reactivity ratio, P24752_C119 (ACAT1 C119 (P24752); in-vitro_ramos): 1.7 | isoTOP-ABPP reactivity ratio, P24752_C119 (ACAT1 C119 (P24752); in-vitro_ramos_231): 1.0 | isoTOP-ABPP reactivity ratio, Q96RU2_C171 (USP28 C171 (Q96RU2); 500 μm, in-vitro_ramos_231): 3.3 | isoTOP-ABPP reactivity ratio, Q9NYL2_C22 (MLTK C22 (Q9NYL2); 500 μm, in-vitro_ramos_231): 1.2 | isoTOP-ABPP reactivity ratio, Q14790_C360 (CASP8 C360 (Q14790); in-vitro_ramos): 4.1 | isoTOP-ABPP reactivity ratio, Q14790_C360 (CASP8 C360 (Q14790); in-vitro_ramos_231): 1.0
SMILES: C=CC(=O)Nc1cc(F)c(N2CCN(C(=O)OC(C)(C)C)CC2)c(F)c1 [compound 38]

Continued, compound first:

SMILES: O=C(CCl)N1CCC(C(O)(c2ccccc2)c2ccccc2)CC1 [compound 20]
isoTOP-ABPP ratio (reactivity profile), P24752_C119 (ACAT1 C119 (P24752); 500 μm in-vitro ramos): 2.6 | isoTOP-ABPP ratio (reactivity profile), P24752_C119 (ACAT1 C119 (P24752); 500 μm in-vitro ramos_231): 3.6 | isoTOP-ABPP ratio (reactivity profile), Q96RU2_C171 (USP28 C171 (Q96RU2); 500 μm in-vitro ramos): 2.4 | isoTOP-ABPP ratio (reactivity profile), Q9NYL2_C22 (MLTK C22 (Q9NYL2)): 20.0 | isoTOP-ABPP ratio (reactivity profile), Q14790_C360 (CASP8 C360 (Q14790); 500 μm in-vitro ramos): 1.5 | isoTOP-ABPP ratio (reactivity profile), Q14790_C360 (CASP8 C360 (Q14790); 500 μm in-vitro ramos_231): 1.9

SMILES: COc1ccc(C2CC(c3cccs3)=NN2C(=O)CCl)cc1 (centres unmarked) [compound 4]
R value (DMSO/fragment) (ACAT1 C119 (P24752); 250 μM, in vitro, MDA-MB-231): 1.8 | R value (DMSO/fragment) (ACAT1 C119 (P24752); 250 μM, in vitro, Ramos): 0.2 | R value (DMSO/fragment) (MLTK C22 (Q9NYL2); 250 μM): 20.0 | R value (DMSO/fragment) (EZH2 C503 (Q15910); 250 μM, in vitro, Ramos): 1.5 | R value (DMSO/fragment) (CASP8 C360 (Q14790); 250 μM, in vitro, MDA-MB-231): 12.3

SMILES: O=C(CCl)Nc1cc(C(F)(F)F)cc(C(F)(F)F)c1 [compound 3]
R value (DMSO/fragment) (ACAT1 C119 (P24752); 500 μM, in vitro, MDA-MB-231): 2.1 | R value (DMSO/fragment) (ACAT1 C119 (P24752); 500 μM, invitro, ramos): 5.3 | R value (DMSO/fragment) (USP28 C171 (Q96RU2); 500 μM, invitro, ramos): 1.7 | R value (DMSO/fragment) (MLTK C22 (Q9NYL2); 500 μM): 1.8 | R value (DMSO/fragment) (EZH2 C503 (Q15910); 500 μM, invitro, ramos): 2.0 | R value (DMSO/fragment) (CASP8 C360 (Q14790); 500 μM, in vitro, MDA-MB-231): 3.3 | R value (DMSO/fragment) (CASP8 C360 (Q14790); 500 μM, invitro, ramos): 2.3

SMILES: C=CC(=O)N(c1ccccc1)c1ccc(Br)cc1 [compound 5]
isoTOP-ABPP ratio P24752_C119 (ACAT1 C119 (P24752); 500 μM, invitro, 231): 1.8 | isoTOP-ABPP ratio P24752_C119 (ACAT1 C119 (P24752); 500 μM, invitro, ramos): 2.4 | isoTOP-ABPP ratio Q9NYL2_C22 (MLTK C22 (Q9NYL2); 500 μM): 20.0 | isoTOP-ABPP ratio, Q15910_C503 (EZH2 C503 (Q15910); 500 μM, invitro, ramos): 20.0 | isoTOP-ABPP ratio Q14790_C360 (CASP8 C360 (Q14790); 500 μM, invitro, 231): 1.0 | isoTOP-ABPP ratio Q14790_C360 (CASP8 C360 (Q14790); 500 μM, invitro, ramos): 1.3
